Reference: PubChem BioAssay (NCI)
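Dose response: 5 concentrations. Exposure: 48 h. Format: 96-well plates. Endpoint: linear interpolation; highest concentration if not reached. Abbreviation: GI50, concentration required for 50% inhibition of growth. At the TGI there is no net growth.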 Peptide text beside a SMILES is read from it. * marks the point of attachment. OSu = O=C1CCC(=O)N1O*; OBn = c1ccc(CO*)cc1; Bn = c1ccc(C*)cc1

What was measured:
Experiment in all cases: NCI anticancer screen, dose series, 48 h
UO-31 renal = system: UO-31 renal
MALME-3M melanoma = system: MALME-3M melanoma
SF-295 CNS = system: SF-295 CNS
RXF 393 renal = system: RXF 393 renal
SNB-75 CNS = system: SNB-75 CNS
LOX IMVI melanoma = system: LOX IMVI melanoma
MDA-N = system: MDA-N
BT-549 breast = system: BT-549 breast
CAKI-1 renal = system: CAKI-1 renal

| Structure (SMILES) | TGI (UO-31 renal) [µM] | TGI (MALME-3M melanoma) [µM] | TGI (SF-295 CNS) [µM] | TGI (RXF 393 renal) [µM] | TGI (SNB-75 CNS) [µM] | TGI (LOX IMVI melanoma) [µM] | TGI (MDA-N) [µM] | TGI (BT-549 breast) [µM] | TGI (CAKI-1 renal) [µM] | GI50 (UO-31 renal) [µM] | GI50 (SNB-75 CNS) [µM] | GI50 (CAKI-1 renal) [µM] |
| --- | --- | --- | --- | --- | --- | --- | --- | --- | --- | --- | --- | --- |
| O=[N+]([O-])c1ccc(-[n+]2ccc3ccccc3c2)c([N+](=O)[O-])c1 | 9.28 | 9.09 | 28.5 | 3.83 | 8.74 | 3.67 | 6 | 13.5 | 8.74 | – | – | – |
| Cc1csc2n(C)c(=O)c3ccccc3[n+]12 | > 100 | – | > 100 | > 100 | – | > 100 | > 100 | > 100 | > 100 | – | – | – |
| CCOC(=O)/C=C1/Nc2cc(F)c(F)cc2NC1=O | > 100 | > 100 | > 100 | > 100 | > 100 | > 100 | > 100 | > 100 | > 100 | – | – | – |
| CC1=CC(=O)/C(=C/N2CCNC2=S)C(=O)O1 | > 100 | – | > 100 | > 100 | > 100 | > 100 | > 100 | > 100 | > 100 | – | – | – |
| CCCCNCC(O)c1cc(-c2ccc(C(F)(F)F)cc2)nc(-c2ccc(C(F)(F)F)cc2)c1 (stereo not given) | 3.08 | – | – | – | 3.6 | – | – | – | 3.41 | 1.44 | 1.91 | 1.71 |
| CCOC(=O)CCC(NC(=O)c1ccc(NCc2ccc3nc(-c4ccccc4)c(Cl)nc3c2)c2ccccc12)C(=O)OCC (stereo not given) | > 100 | > 100 | > 100 | > 100 | > 100 | > 100 | > 100 | > 100 | > 100 | – | – | – |
| C=C1[C@H](OCC(C)C)[C@@H](OC(=O)C(C)CC)[C@@H](O)C(C)(C)/C=C/[C@H](C)C(=O)[C@@]2(O)C[C@H](C)[C@H](O)[C@@H]2[C@H]1OC(=O)C(C)CC (stereo not given in full) | > 5.12 | > 20 | > 16.9 | > 20 | > 18.7 | > 13.3 | > 20 | > 20 | > 18.7 | – | – | – |
| OCCNc1nc2c(N3CCCC3)nc(N3CCNCC3)nc2nc1NCc1ccccc1 | 28.7 | 35.9 | 32.7 | 24.7 | 26.8 | 29.1 | 24.7 | 30.8 | 31.4 | – | – | – |
| O=C(NC(CO)CO)c1ccc2cc(C(=O)N3CC(CCl)c4ccc([N+](=O)[O-])cc43)[nH]c2c1 (stereo not given) | > 100 | > 100 | > 100 | > 100 | > 100 | > 100 | > 100 | > 100 | > 100 | – | – | – |
| OC1(c2ccc(Cl)cc2)c2ccccc2C2=NCc3ccccc3CN21 (stereo not given) | 22.3 | 27.1 | 28.8 | – | 19.4 | 24.3 | 26.5 | 44.7 | 37.7 | – | – | – |
| CC(C)CC(NC(=O)C(N)CCC(=O)OCc1ccccc1)C(=O)NC(COCc1ccccc1)C(=O)NC(Cc1ccccc1)C(=O)ON1C(=O)CCC1=O (stereo not given) (H-E(OBn)LS(Bn)F-OSu; configuration not given here) | 59 | 96.1 | 62.7 | 78.2 | > 100 | 50.7 | 47.6 | – | 64 | – | – | – |
| CCc1cc2c(oc3c4ccccc4ccc23)c(=O)[nH]1 | > 10 | – | > 10 | > 10 | > 10 | > 10 | > 10 | > 10 | – | – | – | – |
| CC(CC(C)(C)[N+](C)(C)C)[N+](C)(C)C (stereo not given) | > 100 | – | > 100 | > 100 | > 100 | – | > 100 | > 100 | > 100 | – | – | – |
| C/C(=N\n1c(Cc2ccccc2)n[nH]c1=O)c1ccc([N+](=O)[O-])cc1 | > 100 | > 100 | > 100 | 57.2 | – | > 100 | > 100 | > 100 | > 100 | – | – | – |
| O=C(CCC(=O)OCC1OC(O)(CC2OC(CO)C(O)C(O)C2O)C(O)C1O)OCc1ccccc1 (stereo not given) | > 100 | > 100 | > 100 | > 100 | > 100 | > 100 | > 100 | > 100 | > 100 | – | – | – |
| CC(C)(C)OC(=O)NCCNC(=O)CN(CC(=O)O)C1CCCCC1N(CC(=O)O)CC(=O)O (stereo not given) | > 100 | > 100 | > 100 | > 100 | > 100 | > 100 | > 100 | > 100 | > 100 | – | – | – |
| CC(=O)C(C(=O)C(C)(C)C)C(=O)C(C)(C)C | > 100 | > 100 | > 100 | > 100 | > 100 | > 100 | > 100 | > 100 | > 100 | – | – | – |
| CCOC(=O)C1=CN(C(=O)c2ccccc2)CCC1Cc1ccccc1 (stereo not given) | 77.9 | 68 | > 100 | 61.8 | 70.3 | 34.4 | 44.4 | 85.9 | > 100 | – | – | – |
| Cc1ccc(CC(=O)Nc2ccc(NC(=O)CNC(=O)/C=C/c3ccc(-c4ccccc4)cc3)cc2C(=O)c2ccccc2)cc1 | 24.7 | 12.3 | 4.86 | 6.6 | – | 13.4 | 20.9 | 24 | 20.4 | – | – | – |
| C=CCc1cccc2cc(C(=O)Nc3nc(C45CC6CC(CC(C6)C4)C5)cs3)c(=O)oc12 | 25.2 | > 100 | 31.3 | 22.5 | > 100 | 42.8 | > 100 | > 100 | 41.4 | – | – | – |
| Cc1nc2sccn2c1C(=O)OCCOCCOCCOCCOC(=O)c1c(C)nc2sccn12 | > 100 | > 100 | > 100 | > 100 | – | > 100 | > 100 | > 100 | > 100 | – | – | – |
| CSc1nc(=O)c(C#N)c(-c2ccccc2)n1C1OC(COC(C)=O)C(OC(C)=O)C(OC(C)=O)C1OC(C)=O (stereo not given) | > 100 | > 100 | > 100 | > 100 | > 100 | > 100 | > 100 | > 100 | > 100 | – | – | – |
| COc1cc(C2C3=C(N=C4SC(C(C)=O)=C(C)N42)c2ccccc2CC3)cc(OC)c1OC (stereo not given) | > 100 | – | > 100 | > 100 | > 100 | > 100 | > 100 | > 100 | – | – | – | – |
